Target: T1, NLK (Homo sapiens, UniProt Q9UBE8)
T1 sequence (Q9UBE8 1-527): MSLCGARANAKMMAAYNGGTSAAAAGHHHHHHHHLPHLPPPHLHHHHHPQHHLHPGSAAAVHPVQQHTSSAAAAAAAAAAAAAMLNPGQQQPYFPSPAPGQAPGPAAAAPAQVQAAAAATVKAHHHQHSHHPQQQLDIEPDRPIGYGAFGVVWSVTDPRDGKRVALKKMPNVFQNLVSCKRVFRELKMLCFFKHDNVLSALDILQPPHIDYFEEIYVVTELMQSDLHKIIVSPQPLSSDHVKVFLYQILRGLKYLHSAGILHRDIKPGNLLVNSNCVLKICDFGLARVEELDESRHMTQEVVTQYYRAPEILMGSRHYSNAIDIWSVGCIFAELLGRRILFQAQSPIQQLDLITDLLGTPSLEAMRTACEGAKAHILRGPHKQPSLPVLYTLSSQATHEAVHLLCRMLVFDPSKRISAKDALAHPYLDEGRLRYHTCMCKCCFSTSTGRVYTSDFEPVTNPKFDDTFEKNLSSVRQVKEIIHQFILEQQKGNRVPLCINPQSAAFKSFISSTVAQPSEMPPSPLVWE
Experiment: NLK in vitro kinase assay, compound added to active NLK immunopurified from Kp53A1 cells
Type: biochemical
Design: inhibition of NLK kinase activity in vitro: dose or concentration left out as unconfirmed
Settings: for NLK activity with compound added to activated NLK in in vitro kinase assay: 0, 50 nM, 50 μM or 50 mM, 30 mins
Description: FIG. 6. […] (a) Schematic of assay utilized to screen compounds for effects on erythroid progenitor cell expansion. Lin-Kit+fetal liver cells were obtained from mouse embryos expressing tet-on shRNA against RPS19, at day E14.5-15.5. Cells were plated at 2000 cell per well in 96-well plates in the presence or absence of doxycycline. Relative amounts of live cells were quantified by luciferase-based Cell titer-Glo® assay. (b) TGFβR1 inhibitors including SB431542 were assessed for their ability to increase cell expansion in RPS19-insuffiency. As a control, untreated (no doxycycline) is represented at the far left while all other samples were treated with doxycycline to induce RPS19-insufficiency. (c) Kit+ erythroid progenitors were grown in the absence of doxycycline and in the presence of 10 μM of indicated compound. As a comparison, samples with no inhibitor added are represented in grey. In addition, cells were either left untreated, or treated with 5 ng/ml of TGFβ1 for 5 days before being subjected to Cell TiterGlo® assay. (d) Schematic indicating Smad2 and Smad3 serve as substrates for activated TGFβR1 while NLK, c-Myb and raptor serve as substrates for activated NLK (upper panel). K562 cells were stimulated with 5 ng/ml TGFβ1 for 10 min and TGFβR1 was immunopurified after cell lysis and protein normalization. TGFβR1 was added to purified Smad2 (middle panel) and Smad3 (lower panel) in the presence of ATP and Mg^2+ at 37° C. for 30 min. As per NLK kinase assay, phosphorylation of substrates was detected by antibody raised against phosphorylated serine residues. Compounds with inhibitory properties against TGFβR1, other TGFB pathway factors, or NLK expression were added to the kinase reactions at concentrations known to inhibit TGFB signaling.
FIG. 10. […] (Panel A) Control (shLuc—grey columns) or RPS19-insufficient (shRPS19-—black columns) progenitors were differentiated in erythroid media alone, vehicle or vehicle containing 50 mM metformin or 5 uM SD208 for 5 days. 5000 cells per treatment were lysed and immunopurified NLK was subjected to in vitro kinase assay to determine phosphorylation potential against 3 recognized NLK substrates; NLK itself (upper), c-Myb (middle) or raptor (bottom). (Panel B) Simultaneously, qRT-PCR was performed to examine NLK (upper) and RPS19 (lower) mRNA expression. (Panel C) Active NLK was purified from activated Kp53A1 cells and subjected to in vitro kinase assay in the presence of 0, 50 nM, 50 μM, or 50 mM metformin or SD208. The phosphorylation of NLK (upper), c-Myb (middle) and raptor (lower) was determined after 30 mins. (Panel D) CD34+ progenitors were transduced with a combination of either shRNA against luciferase (shLuc—grey columns) or RPS19 (shRPS19—black columns) and siRNA against a non-targeting sequence (NT) or NLK (siNLK). After 14 days differentiation in the presence or absence of metformin, cells were counted and the percentage of cells with surface expression of CD235 and CD11b were determined by flow cytometry, to yield the number of CD235+ erythroid (upper) and CD11b+ myeloid (lower) cells. The total number of cells is expressed as a percentage of the number of each cell type in the control (untreated/shLuc/NT). […] Statistics: two-tailed Student's t test, significant *P<0.05
For NLK kinase analysis, cultures were treated as indicated and lysed for 30 min at 4° C. in 750 μl of kinase lysis buffer (50 mM Tris [pH 7.4], 5 mM EDTA, 250 mM NaCl, 0.1% Triton X-100, 50 mM NaF, 0.1 trypsin inhibitor unit of aprotinin per ml, 50 μg of phenylmethylsulfonyl fluoride per ml, 100 μM sodium vanadate, 1 μg of leupeptin per ml).

[1] = panel assessed at 0.1, 1 and 10 μM, compared with TGFβR1 at 1 μM

Cc1cccc(-c2nn3c(c2-c2ccnc4ccc(C(N)=O)cc24)CCC3)n1 [Galunisertib]
inhibition at 1 µM [1]: 40 to 45%

NC(=O)c1ccc(-c2nc(-c3ccc4c(c3)OCO4)c(-c3ccccn3)[nH]2)cc1 [SB431542]
inhibition at 1 µM [1]: ~55%

Fc1ccc(Cl)cc1-c1nc(Nc2ccncc2)c2nccnc2n1 [SD208]
NLK activity with compound added to activated NLK in in vitro kinase assay: robustly inhibited | inhibition of NLK phosphorylating NLK (5 μM): 84.3% | inhibition of NLK phosphorylating Raptor (5 μM): 89.1% | inhibition of NLK phosphorylating c-Myb (5 μM): 79.7% | inhibition of NLK activity in vitro [1]: approximately 80%

CC(C)=CCC[C@](C)(O[C@@H]1O[C@H](CO[C@@H]2O[C@H](CO)[C@@H](O)[C@H](O)[C@H]2O)[C@@H](O)[C@H](O)[C@H]1O)[C@H]1CC[C@]2(C)[C@@H]1[C@H](O)C[C@@H]1[C@@]3(C)CC[C@H](O[C@@H]4O[C@H](CO)[C@@H](O)[C@H](O)[C@H]4O[C@@H]4O[C@H](CO)[C@@H](O)[C@H](O)[C@H]4O)C(C)(C)[C@@H]3CC[C@]12C [ginsenoside Rb1]
inhibition of NLK kinase activity in vitro (substrates Raptor, c-Myb, NLK): failed to inhibit

CN(C)C(=N)N=C(N)N [metformin]
NLK activity with compound added to activated NLK in in vitro kinase assay: did not influence

From patent US12403132B2, “Methods of treating bone marrow failure syndromes and compositions for use in the same” (The Board of Trustees of the Leland Stanford Junior …, priority 2020, dated 2025)
